Assay results reported in patent US4362743A, “Antibacterial monic acid esters” (Beecham Group Limited, priority 1980, dated 1982).

What was measured:
in vivo = details: mouse, 50 mg/kg
[1] = Mean serum concentrations in neonatal piglets after intramuscular or oral administration; assay type: in vivo; details: pig, 50 mg/kg; for concentration at 40 min: 40° (printed)
Experimental: Blood levels were assessed in neonatal piglets (2 to 4 animals per group and mean bodyweights about 2 kg). The dose was 50 mg/kg (dose solution=25 mg/ml in 25% ethanol). Doses were given by intramscular injection and orally by stomach tube. Piglets were beld at intervals up to 6 and at 24 hours, serum assayed microbiologically (B. subtilis ATCC 6633).

SMILES | concentration at 5 min (in vivo; po) | concentration at 10 min (in vivo; po) | concentration at 20 min (in vivo; po) | concentration at 0.5 h (in vivo; po) | concentration at 0.75 h (in vivo; po) | concentration at 1 h (in vivo; po) | concentration at 1.5 h (in vivo; po) | concentration at 5 min (in vivo; sc) | concentration at 10 min (in vivo; sc) | concentration at 20 min (in vivo; sc) | concentration at 0.5 h (in vivo; sc) | concentration at 0.75 h (in vivo; sc) | concentration at 1 h (in vivo; sc) | concentration at 1.5 h (in vivo; sc) | also measured
C/C(=C\C(=O)OCCCC(=NO)c1ccccc1)C[C@@H]1OC[C@H](C[C@@H]2O[C@H]2[C@@H](C)[C@H](C)O)[C@@H](O)[C@H]1O [Example 1, 4-Hydroxyimino-4-phenylbutyl monate A] | 1000 ng/mL | 790 ng/mL | 230 ng/mL | < 200 ng/mL | < 200 ng/mL | < 120 ng/mL | < 200 ng/mL | 4400 ng/mL | 6500 ng/mL | 3100 ng/mL | 1600 ng/mL | 460 ng/mL | 280 ng/mL | < 200 ng/mL | concentration at 40 min ([1]; im): 6300 ng/mL; concentration at 10 min ([1]; im): 7000 ng/mL; concentration at 20 min ([1]; im): 6700 ng/mL; concentration at 1 h ([1]; im): 6600 ng/mL; concentration at 2 h ([1]; im): 5200 ng/mL; concentration at 3 h ([1]; im, 3h): 2900 ng/mL; concentration at 4 h ([1]; im, 4h): 1700 ng/mL; concentration at 6 h ([1]; im, 6h): < 900 ng/mL; concentration at 40 min ([1]; po): 3300 ng/mL; concentration at 10 min ([1]; po): 3000 ng/mL; concentration at 20 min ([1]; po): 3000 ng/mL; concentration at 1 h ([1]; po): 1200 ng/mL; concentration at 2 h ([1]; po): < 1000 ng/mL
C/C(=C\C(=O)OC1CCC(=NO)CC1)C[C@@H]1OC[C@H](C[C@@H]2O[C@H]2[C@@H](C)[C@H](C)O)[C@@H](O)[C@H]1O (stereo partly shown) [Example 3, 4-Hydroxyiminocyclohexyl monate A] | 3500 ng/mL | 3500 ng/mL | 2200 ng/mL | 1900 ng/mL | 1600 ng/mL | 800 ng/mL | 600 ng/mL | 20600 ng/mL | 23000 ng/mL | 16600 ng/mL | 7900 ng/mL | 2900 ng/mL | 1500 ng/mL | 300 ng/mL | –
C/C(=C\C(=O)OCCCCCC=NN(C)C)C[C@@H]1OC[C@H](C[C@@H]2O[C@H]2[C@@H](C)[C@H](C)O)[C@@H](O)[C@H]1O [Example 6, 6-Dimethylhydrazonohexyl monate A] | 3400 ng/mL | 3400 ng/mL | 680 ng/mL | < 600 ng/mL | < 600 ng/mL | < 600 ng/mL | < 600 ng/mL | 12100 ng/mL | 14800 ng/mL | 9700 ng/mL | 6800 ng/mL | 3800 ng/mL | 2300 ng/mL | < 600 ng/mL | –
